According to ChEMBL document CHEMBL3124821, “Activity of caffeic acid derivatives against Candida albicans biofilm” (Bioorg Med Chem Lett, 2014):
≈ marks a conversion by molar mass, not a printed value.

Key:
[1] = test system: Candida albicans; test: Antifungal activity against planktonically grown Candida albicans ATCC 10231 by CLSI M27 A3 broth microdilution method; type: functional
[2] = test system: Candida albicans; test: Antifungal activity against mature preformed Candida albicans ATCC 10231 biofilm by XTT reduction assay; type: functional
[3] = test system: Candida albicans; test: Antifungal activity against early stage preformed Candida albicans ATCC 10231 biofilm by XTT reduction assay; type: functional
[4] = test system: Candida albicans; test: Inhibition of biofilm formation of Candida albicans ATCC 10231 by XTT reduction assay; type: functional
[5] = in vitro; conditions: human, NCI-H292 cells
Description: Cytotoxicity against human NCI-H292 cells assessed as reduction in viable cells by MTT assay

[6] = test system: Candida albicans; test: Ratio of compound MIC to fluconazole MIC for biofilm formation of Candida albicans ATCC 10231 by XTT reduction assay; type: functional

## CCCOC(=O)/C=C/c1ccc(O)c(O)c1
[1]
  MIC50: 128 µg/mL (≈ 576 µM)
[2]
  MIC50: 256 µg/mL (≈ 1150 µM)
[3]
  MIC50: 256 µg/mL (≈ 1150 µM)
[4]
  MIC50: 256 µg/mL (≈ 1150 µM)

## COc1ccc(OC(=O)/C=C/c2ccc(O)c(O)c2)cc1F
[1]
  MIC50: 128 µg/mL (≈ 421 µM)
[2]
  MIC50: 256 µg/mL (≈ 841 µM)
[4]
  MIC50: 256 µg/mL (≈ 841 µM)

## O=C(/C=C/c1ccc(O)c(O)c1)OCc1ccc([N+](=O)[O-])o1
[1]
  MIC50: 16 µg/mL (≈ 52.4 µM)
[2]
  MIC50: 128 µg/mL (≈ 419 µM)
[3]
  MIC50: 64 µg/mL (≈ 210 µM)
[4]
  MIC50: 32 µg/mL (≈ 105 µM)
[5]
  CC50: 192 µg/mL (≈ 627 µM)

## O=C(/C=C/c1ccccc1)OCc1ccc([N+](=O)[O-])o1
[1]
  MIC50: 2 µg/mL (≈ 7.32 µM)
[2]
  MIC50: 64 µg/mL (≈ 234 µM)
[3]
  MIC50: 32 µg/mL (≈ 117 µM)
[4]
  MIC50: 32 µg/mL (≈ 117 µM)
[5]
  CC50: 174 µg/mL (≈ 638 µM)

## O=C(CCc1ccc(O)c(O)c1)OCc1ccc([N+](=O)[O-])o1
[1]
  MIC50: 64 µg/mL (≈ 208 µM)
[2]
  MIC50: 128 µg/mL (≈ 417 µM)
[3]
  MIC50: 128 µg/mL (≈ 417 µM)
[4]
  MIC50: 128 µg/mL (≈ 417 µM)
[5]
  CC50: 257 µg/mL (≈ 835 µM)

## O=C(OCc1ccc([N+](=O)[O-])o1)c1ccc(O)c(O)c1
[6]
  Ratio: 8
[1]
  MIC50: 16 µg/mL (≈ 57.3 µM)
[2]
  MIC50: 64 µg/mL (≈ 229 µM)
[3]
  MIC50: 64 µg/mL (≈ 229 µM)
[4]
  MIC50: 16 µg/mL (≈ 57.3 µM)
[5]
  CC50: 132 µg/mL (≈ 473 µM)

## CC(C)COC(=O)/C=C/c1ccc(O)c(O)c1
[1]
  MIC50: 128 µg/mL (≈ 542 µM)
[2]
  MIC50: 256 µg/mL (≈ 1080 µM)
[4]
  MIC50: 256 µg/mL (≈ 1080 µM)

## O=C(O)/C=C/c1ccc(O)c(O)c1 [CAFFEIC ACID]
[1]
  MIC50: 128 µg/mL (≈ 710 µM)
[2]
  MIC50: 256 µg/mL (≈ 1420 µM)
[3]
  MIC50: 256 µg/mL (≈ 1420 µM)
[4]
  MIC50: 256 µg/mL (≈ 1420 µM)

## CCOC(=O)/C=C/c1ccc(O)c(O)c1 [ETHYL CAFFEATE]
[1]
  MIC50: 128 µg/mL (≈ 615 µM)
[2]
  MIC50: 256 µg/mL (≈ 1230 µM)
[4]
  MIC50: 256 µg/mL (≈ 1230 µM)

## OC(Cn1cncn1)(Cn1cncn1)c1ccc(F)cc1F [FLUCONAZOLE]
[1]
  MIC50: 0.5 µg/mL (≈ 1.63 µM)
[2]
  MIC50: 256 µg/mL (≈ 836 µM)
[3]
  MIC50: 256 µg/mL (≈ 836 µM)
[4]
  MIC50: 128 µg/mL (≈ 418 µM)

## COC(=O)/C=C/c1ccc(O)c(O)c1 [METHYLCAFFEATE]
[1]
  MIC50: 128 µg/mL (≈ 659 µM)
[2]
  MIC50: 256 µg/mL (≈ 1320 µM)
[4]
  MIC50: 256 µg/mL (≈ 1320 µM)
